Here are results for ten compounds from ChEMBL document CHEMBL1201862, “PubChem BioAssay data set” (2004).

The structures appear in SMILES notation.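 Dose response: 5 concentrations. Exposure: 48 h. Format: 96-well plates. Endpoint: linear interpolation; highest concentration if not reached. At the GI50, growth is halved.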 Calls of active or inactive are those of the source. No stated cut-off is given here; in the data, active = GI50 up to about 1.1 µM and inactive = higher. Bounds are passed on as bounds.

Among the test systems are HOP-62; BT-549; LOX IMVI; OVCAR-3; MDA-MB-231; SK-MEL-28; SK-OV-3; ACHN; TK-10; SK-MEL-5; U-251; MCF7; HCT-116; CAKI-1; SF-268; A498; M14; 786-0; DU-145; HCC 2998.
What all share (test): growth of human tumour cells (NCI), 48 h

For `CN(C)CCCN1C(=O)N(CCCN(C)C)c2c3cc(O)ccc3nc3c([N+](=O)[O-])ccc1c23`, the GI50 in the assay with HOP-62 was 17.2 µM (inactive); with BT-549 it was 17.6 µM (inactive); in the assay with LOX IMVI, 10.4 µM (inactive); in the assay with OVCAR-3 it was 26.1 µM (inactive); with MDA-MB-231, 11.6 µM (inactive); with SK-MEL-28 it was 43.3 µM (inactive). Also, the GI50 with SK-OV-3 is 32.7 µM (inactive); in the assay on ACHN, 16.6 µM (inactive); in the assay with TK-10, 21.3 µM (inactive); in the assay with SK-MEL-5, 15.5 µM (inactive); with U-251, 14.2 µM (inactive); in the assay on MCF7, 11.3 µM (inactive). Further, the GI50 in the assay on HCT-116 is 14.1 µM (inactive); with CAKI-1, 23.3 µM (inactive); with SF-268 it was 10.3 µM (inactive); in the assay on A498, 22 µM (inactive); in the assay on M14, 32.7 µM (inactive); in the assay on 786-0, 8.13 µM (inactive). For the same compound, the GI50 with DU-145 was 27.9 µM (inactive); in the assay with HCC 2998, 11.7 µM (inactive).
With `CC/C=C/C[C@H](O[Si](C)(C)C(C)(C)C)[C@H]1C[C@H]2O[C@H]([C@@H](O)C#C[Si](C)(C)C)C[C@H]2O1`, the GI50 in the assay with HOP-62 was 16.1 µM (inactive); with BT-549, 19.2 µM (inactive); with LOX IMVI, 10.4 µM (inactive); in the assay with OVCAR-3 it was 14.8 µM (inactive); in the assay with MDA-MB-231 it was 14.9 µM (inactive); with SK-MEL-28, 14.2 µM (inactive). In addition, the GI50 was 15.5 µM (inactive) in the assay on SK-OV-3; 15.2 µM (inactive) in the assay on ACHN; 15.2 µM (inactive) in the assay on TK-10; 6.78 µM (inactive) in the assay with SK-MEL-5; 15.5 µM (inactive) with U-251; 6.92 µM (inactive) in the assay on MCF7. Moreover, the GI50 with HCT-116 is 12.1 µM (inactive); with CAKI-1, 11.3 µM (inactive); in the assay with SF-268, 13.8 µM (inactive); in the assay with A498 it was 17.9 µM (inactive); with M14, 12.1 µM (inactive); in the assay with 786-0, 14.7 µM (inactive). The GI50 was 14.7 µM (inactive) in the assay with DU-145 and 15.9 µM (inactive) in the assay with HCC 2998.
Regarding `CCN1CCCc2cc3c(C(F)(F)F)cc(=O)oc3cc21`, the GI50 in the assay with HOP-62 was > 100 µM (inactive); in the assay with BT-549, 58.2 µM (inactive); in the assay with LOX IMVI, 82.2 µM (inactive); with OVCAR-3 it was 33 µM (inactive); in the assay on MDA-MB-231 it was 53.2 µM (inactive); in the assay on SK-MEL-28, > 100 µM (inactive). For the same compound, the GI50 was > 100 µM (inactive) in the assay on SK-OV-3; 87.9 µM (inactive) in the assay on ACHN; > 100 µM (inactive) in the assay with TK-10; 28.6 µM (inactive) with SK-MEL-5; > 100 µM (inactive) with U-251; 56.2 µM (inactive) with MCF7. Further, the GI50 is 91.8 µM (inactive) in the assay on HCT-116; 50.8 µM (inactive) in the assay with CAKI-1; > 100 µM (inactive) with SF-268; 45.9 µM (inactive) in the assay with A498; > 100 µM (inactive) with M14; 39.4 µM (inactive) in the assay on 786-0. Further, the GI50 with DU-145 and with HCC 2998 was > 100 µM (inactive) in each case.
In the case of `CC1(C)C2CCC1(C)[C@H](O)[C@H]2Nc1cc(C(F)(F)F)cc(C(F)(F)F)c1` (stereo not given in full), the GI50 is 5.48 µM (inactive) in the assay with HOP-62; 3.91 µM (inactive) in the assay on BT-549; 3 µM (inactive) in the assay with LOX IMVI; 2.24 µM (inactive) with OVCAR-3; 4.53 µM (inactive) in the assay on MDA-MB-231; 1.74 µM (inactive) with SK-MEL-28. For the same compound, the GI50 with SK-OV-3 was 3.88 µM (inactive); in the assay with ACHN, > 100 µM (inactive); with TK-10, 3.15 µM (inactive); in the assay on SK-MEL-5, 5.38 µM (inactive); with U-251 it was 4.15 µM (inactive); in the assay on MCF7, > 100 µM (inactive). Moreover, the GI50 with HCT-116 was 2.72 µM (inactive); in the assay with CAKI-1, 3.76 µM (inactive); with SF-268 it was 3.14 µM (inactive); with A498 it was > 100 µM (inactive); in the assay on M14 it was 4.06 µM (inactive); with 786-0, 3.85 µM (inactive). For the same compound, the figures for the GI50 in the assay with DU-145 and in the assay on HCC 2998 were 3.66 µM (inactive) and 3.38 µM (inactive), respectively.
For the compound `CC1=C(C(=O)NC2CCCCC2)CC(C(=O)NC2CCCCC2)=C(C)N1`, the GI50 in the assay on HOP-62, in the assay with BT-549, in the assay on LOX IMVI, in the assay on OVCAR-3, in the assay with MDA-MB-231 and with SK-MEL-28 was > 100 µM (inactive) in each case. For the same compound, the GI50 was > 100 µM (inactive) in the assay with SK-OV-3; > 100 µM (inactive) in the assay with ACHN; 39.2 µM (inactive) in the assay on TK-10; > 100 µM (inactive) with SK-MEL-5; > 100 µM (inactive) in the assay with U-251; > 100 µM (inactive) in the assay on MCF7. For the same compound, the GI50 in the assay on HCT-116 is > 100 µM (inactive); in the assay on CAKI-1, > 100 µM (inactive); in the assay with SF-268, 39.9 µM (inactive); in the assay on A498, 65.9 µM (inactive); in the assay with M14, > 100 µM (inactive); in the assay on 786-0, > 100 µM (inactive). Further, the GI50 with DU-145 and in the assay on HCC 2998 was > 100 µM (inactive) in each case.
Take `COc1ccc(NC(=O)C(C#N)=C(SC)SC)cc1`: the GI50 in the assay with HOP-62, in the assay on BT-549, in the assay on LOX IMVI, in the assay on OVCAR-3, in the assay on MDA-MB-231 and with SK-MEL-28 was > 100 µM (inactive) each time. The GI50 with SK-OV-3, with ACHN, in the assay on TK-10, with SK-MEL-5, in the assay on U-251 and with MCF7 was > 100 µM (inactive) in each case. Further, the GI50 in the assay on HCT-116 is > 100 µM (inactive); in the assay on CAKI-1 it was 50.5 µM (inactive); in the assay on SF-268, > 100 µM (inactive); with A498, > 100 µM (inactive); in the assay on M14, > 100 µM (inactive); in the assay on 786-0, > 100 µM (inactive). Further, the GI50 in the assay with DU-145 and in the assay on HCC 2998 was > 100 µM (inactive) each time.
Take `COC(=O)CCc1cc(O)c2c(c1)C(C(=O)OC)C(c1ccc(O)c(O)c1)O2` (stereo not given): the GI50 with HOP-62 was 15.1 µM (inactive); in the assay with BT-549 it was 12.5 µM (inactive); in the assay on LOX IMVI, 8.04 µM (inactive); in the assay with OVCAR-3 it was 3.71 µM (inactive); in the assay with MDA-MB-231, 11.7 µM (inactive); with SK-MEL-28 it was 8.93 µM (inactive). Further, the GI50 is 33.6 µM (inactive) with SK-OV-3; 33.7 µM (inactive) with ACHN; 53.1 µM (inactive) in the assay on TK-10; 4.06 µM (inactive) with SK-MEL-5; 11.8 µM (inactive) in the assay with U-251; 4.79 µM (inactive) with MCF7. The GI50 is 7.19 µM (inactive) in the assay on HCT-116; 26.6 µM (inactive) in the assay on CAKI-1; 16.3 µM (inactive) in the assay on SF-268; > 44.9 µM (inactive) with A498; 13.9 µM (inactive) in the assay on M14; 26.1 µM (inactive) with 786-0. Besides, the GI50 with DU-145 is > 41.9 µM (inactive); in the assay on HCC 2998, 5.02 µM (inactive).
As to `NC(=O)c1[nH]nc(C2OC(CO)C(O)C2O)c1O` (stereo not given), the GI50 in the assay on HOP-62 was 2.68 µM (inactive); in the assay on BT-549, 182 µM (inactive); with LOX IMVI, 0.504 µM (active); in the assay with OVCAR-3, 19.6 µM (inactive); in the assay on MDA-MB-231 it was 8.59 µM (inactive); in the assay on SK-MEL-28, 328 µM (inactive). Also, the GI50 in the assay on SK-OV-3 was 84.3 µM (inactive); in the assay with ACHN it was 0.5 µM (active); in the assay on TK-10 it was 91.6 µM (inactive); with SK-MEL-5 it was 64.3 µM (inactive); in the assay with U-251 it was 1.38 µM (inactive); in the assay on MCF7, 1.79 µM (inactive). Besides, the GI50 in the assay on HCT-116 was 0.548 µM (active); with CAKI-1 it was 0.689 µM (active); with SF-268 it was 4.57 µM (inactive); in the assay on A498, 60.5 µM (inactive); with M14, 95.3 µM (inactive); in the assay with 786-0, 0.5 µM (active). In addition, the GI50 is 0.5 µM (active) in the assay on DU-145 and 42.5 µM (inactive) in the assay with HCC 2998.
As to `Cc1cc(C)c2c(=O)n(CN3CCN(c4ccccc4)CC3)sc2n1`, the GI50 with HOP-62 was 34.1 µM (inactive); in the assay on BT-549 it was 63.2 µM (inactive); in the assay on LOX IMVI it was 20.7 µM (inactive); with OVCAR-3, 36.6 µM (inactive); with MDA-MB-231, 20.4 µM (inactive); in the assay on SK-MEL-28 it was 36.6 µM (inactive). Moreover, the GI50 in the assay on SK-OV-3 is > 100 µM (inactive); with ACHN, 20.1 µM (inactive); with TK-10 it was 49.5 µM (inactive); in the assay on SK-MEL-5 it was 28.3 µM (inactive); with U-251, 23.4 µM (inactive); with MCF7, 29.7 µM (inactive). Further, the GI50 in the assay on HCT-116 was 17.7 µM (inactive); with CAKI-1 it was 21 µM (inactive); in the assay with SF-268, > 100 µM (inactive); in the assay with A498, > 100 µM (inactive); in the assay with M14, 24.5 µM (inactive); in the assay on 786-0 it was 16.8 µM (inactive). The figures for the GI50 with DU-145 and with HCC 2998 were 22.2 µM (inactive) and 71.3 µM (inactive), respectively.
Consider `COc1ccc(C2c3cc4c(cc3OC(N3CCOCC3)C2C)OCO4)cc1OC` (stereo not given), for which the GI50 with HOP-62 was 12 µM (inactive); with BT-549, 7.48 µM (inactive); in the assay on LOX IMVI, 6.11 µM (inactive); in the assay on OVCAR-3, 3.3 µM (inactive); in the assay with MDA-MB-231, 16.2 µM (inactive); in the assay with SK-MEL-28, > 50.5 µM (inactive). Also, the GI50 was 5.24 µM (inactive) in the assay on SK-OV-3; 10.3 µM (inactive) in the assay on ACHN; 15.6 µM (inactive) in the assay with TK-10; 4.06 µM (inactive) in the assay with SK-MEL-5; 5.52 µM (inactive) with U-251; 4.97 µM (inactive) in the assay on MCF7. The GI50 with HCT-116 is 4.75 µM (inactive); with CAKI-1, 3.07 µM (inactive); in the assay with SF-268 it was 13.9 µM (inactive); in the assay on A498 it was 6.46 µM (inactive); with M14, 5.38 µM (inactive); with 786-0 it was 8.15 µM (inactive). The GI50 was 9.42 µM (inactive) with DU-145 and 5.53 µM (inactive) with HCC 2998.
